# Test results published in patent publication US20230151434A1, “REAWAKENING OF DORMANT TUMOR CELLS BY MODIFIED LIPIDS DERIVED FROM STRESS ACTIVATED NEUTROPHILS” (The Wistar Institute of Anatomy and Biology, priority 2020, published 2023).
# Where two headings read alike, the source gives them in different places.
# B1: IL-10: proinflammatory cytokine as printed (protein, UniProt P22301 19-178, looked up)
# Interleukin-10: SPGQGTQSENSCTHFPGNLPNMLRDLRDAFSRVKTFFQMKDQLDNLLLKESLLEDFKGYLGCQALSEMIQFYLEEVMPQAENQDPDIKAHVNSLGENLKTLRLRLRRCHRFLPCENKSKAVEQVKNAFNKLQEKGIYKAMSEFDIFINYIEAYMTMKIRN
# B2: human S100A8/A9: human recombinant S100A8/A9 (protein, UniProt P05109 1-93; P06702 1-114, looked up)
# Protein S100-A8: MLTELEKALNSIIDVYHKYSLIKGNFHAVYRDDLKKLLETECPQYIRKKGADVWFKELDINTDGAVNFQEFLILVIKMGVAAHKKSHEESHKE
# Protein S100-A9: MTCKMSQLERNIETIINTFHQYSVKLGHPDTLNQGEFKELVRKDLQNFLKKENKNEKVIEHIMEDLDTNADKQLSFEEFIMLMARLTWASHEKMHEGDEGPGHHHKPGLGEGTP
# Key:
# KPr^p53A cells = assay: In vitro co-culture of dormant tumor cells with PMN (count of GFP+ cells); assay type: cell-based, mouse; conditions: for reactivation/proliferation of KPr^p53A cells cultured with PMN plus supplement: supplement added with PMN, LPS 0.5 to 2 μg/ml
# Procedure: (§1) The KPr cell line (16) was maintained in RPMI 1640 medium (Corning) and 10% FBS (Gibco). Treatment of KPr cells with 250 nM 4-hydroxytamoxifen (4-OHT, Sigma-Aldrich) induced p53 expression. p53-induced cells (KPr^p53) were stained with CellTrace dye for 20 min at 37° C. according to the manufacturer's instructions (Life Technologies) and seeded at 8500 cells/cm^2 in culture in a T175 tissue culture-treated flask (Gibco). After 7 days, cells were detached and sorted based on the CellTrace dye intensity as proliferating (KPr^p53P, with lower CellTrace) and arrested cells (KPr^p53A, with higher-intensity CellTrace; see FIG. 1A for representative image). LL2 cells were seeded at 1000 cells/cm2 and treated for 3 days with 2.5 μM cisplatin (Selleckchem). After that, cells were stained with CellTrace and sorted as described above. OVCAR3 cell senescence was induced by treating 5×10^4 cells/cm2 with 0.5 μM cisplatin for 72 hours. After that time, cells were stained with CellTrace and sorted. A549 senescence was induced by 72-hour treatment with 4 μM cisplatin and cells were sorted after staining with CellTrace. Time points for sorting were chosen as the best to observe separation between arrested and proliferating cells. Cells were sorted on Astrios (Beckman Coulter) or Melody (Becton Dickinson) fluorescence-activated cell sorters.
# (§2) Arrested tumor cells were plated at 100 cells/cm^2 in a 48-well tissue culture-treated plate (Costar) for coculture experiments. After 24 hours, PMN-MDSC or PMN were added at indicated ratios. Cocultures were maintained for 48 hours in RPMI 1640+10% FBS in the presence of mouse recombinant GM-CSF (10 ng/ml; Rocky Hill) to ensure neutrophil viability. All control conditions were in the presence of media with GM-CSF. All indicated supplements (NE, S100A8/A9, BGJ398, ICI 118-551, IL-2, MPO inhibitor, LPS, lipids, PMA, and thapsigargin 1 μM) were added to culture at the same time as PMN and maintained for 48 hours. After that, media were removed and replaced by fresh media without GM-CSF. After 1 week, GFP^+ cells in wells were counted via an inverted microscope. When lipid extracts were used, lipids were added to dormant cells in culture at 1 to 0.05 or 0.01 nmol as indicated in each experiment.
# PMN [1] = assay: S100A8/A9 release by PMN measured by ELISA; assay type: cell-based, mouse
# Procedure: PMN or PMN-MDSC were isolated from spleen of tumor-free mice or LLC tumor-bearing mice, respectively. A total of 5×10^5 LLC cells were injected into the right flank of mice, and spleens were harvested when tumors reached 200 mm^2. Spleens were mechanically dissociated. Red blood cells were lysed with ACK buffer cells. Splenocytes were stained with mouse biotin-conjugated Ly6G antibody (Miltenyi Biotec) followed by biotin microbeads. Ly6G+ cells were purified by magnetic separation with MACS column for magnetic cell isolation, according to the manufacturer's instructions (Miltenyi Biotec).
# One hundred microliters of mouse peripheral blood was collected from facial vein. NE was measured by a mouse NE ELISA Kit (Novus Biologicals). S100A8/A9 was measured by Mouse S100A8/S100A9 Heterodimer DuoSet ELISA (R&D Systems). S100A8/A9 concentrations in human serum samples were determined by using a double-sandwich ELISA system as previously described (64), which is different from commercial ELISA kits. Human NE was measured using an ELISA kit (Abnova).
# [2] = system: LL2, A549 and OVCAR3 cells; assay: Cisplatin-induced tumor cell dormancy; assay type: cell-based, mouse; human; conditions: LL2 2.5 μM, A549 4 μM, OVCAR3 0.5 μM, 72 hours
# Procedure: as §1, with “sorters. […]” for “sorters.”
# PMN [3] = assay: PMN viability (proportion of live PMN); assay type: cell-based, mouse
# Procedure: FIG. 2A-FIG. 2K show neutrophil-mediated reactivation of dormant cells is regulated by stress-induced S100A8/A9. (FIG. 2A) Fold increase in the number of KPr^p53A cells cultured in the presence of PMN and S100A8/A9 or indicated cytokines relative to KPr^p53A cells cultured with PMN. Three independent experiments with 16 replicates were performed. Mean±SEM of one experiment is shown. (FIG. 2B) Fold increase in the number of KPr^p53A cells cultured in the presence of PMN and LPS relative to KPr^p53A cells cultured with PMN or alone. Means±SEM of three independent experiments with 16 replicates each are shown. (FIG. 2C) Fold increase in the number of KPr^p53A cells cultured in the presence of S100A8/A9 alone, PMN and S100A8/A9, or PMN-MDSC relative to KPr^p53A cultured alone. Means±SEM of 10 independent experiments with 16 replicates each are shown. (FIG. 2D) S100A8/A9 protein produced by PMN after treatment with indicated hormones or LPS was measured by ELISA. PMN-MDSC were isolated from spleens of Lewis lung carcinoma tumor-bearing mice. Means±SEM and results of each independent experiment with three replicates are shown. (FIG. 2E) S100A8/A9 protein secreted in vitro from PMN and PMN treated with NE with or without ICI-118; […] as measured by ELISA. Means±SEM and results of independent experiment with three replicates are shown. (FIG. 2F) Flow cytometry staining of ADRB2 receptor (dark gray) on PMN isolated from mouse spleen. Isotype control, light gray. Representative histogram of three experiments is shown. (FIG. 2G) Fold increase in the number of KPr^p53A cells cultured with PMN alone, NE alone, PMN and NE together, and PMN and NE plus ICI-118; 553 relative to KPr^p53A cells cultured alone (Ctrl). Ten independent experiments with 16 replicates for each experiment were performed. Means±SEM in a representative experiment are shown. (FIG. 2H) Number of KPr^p53A cells cultured in the presence of PMN from S100a9KO mice alone or together with NE relative to KPr^p53A cells cultured alone (ctrl). Means±SEM are reported for 16 replicates. (FIG. 2I) Percentage of live PMN after overnight incubation with NE, S100A8/A9, or LPS. Each dot represents the average of three experimental replicates of one single experiment. Means±SEM are shown for each group. (FIG. 2J) Fold increase in number of LL2^CisA cells cultured with PMN alone or together with S100A8/A9 or NE relative to LL2^CisA cultured alone (Ctrl). Means±SEM of three independent experiments with 16 replicates each are shown. […] In all panels, P values were calculated using ANOVA test with correction for multiple comparisons.
# FIG. 11A-FIG. 11G show the mechanism of dormant tumor cell reactivation. […] P values were calculated by ANOVA test with correction for multiple comparisons. […]
# [4] = system: A549^cisA and OVCAR3^cisA cells; assay: In vitro co-culture of chemotherapy-arrested human tumor cells with human PMN; assay type: cell-based; conditions: A549^cisA, OVCAR3^cisA
# Procedure: as §1, §2
# [5] = system: LL2^cisA and AT-3^DoxA cells; assay: In vitro co-culture of chemotherapy-arrested mouse tumor cells with PMN; assay type: cell-based; conditions: LL2^cisA, AT-3^DoxA
# Procedure: as §1, §2
# [6] = PMN treated with stress hormones or LPS
molecule,measurement,setting,value
IL-6: proinflammatory cytokine,reactivation/proliferation of KPr^p53A cells cultured with PMN plus supplement,KPr^p53A cells,did not induce their ability to reactivate dormant KPr^p53A cells
CNC[C@H](O)c1ccc(O)c(O)c1 [epinephrine],S100A8/A9 release by PMN,PMN [1],caused rapid release of S100A8/A9 proteins
N.N.[Cl][Pt][Cl] [cisplatin],induction of proliferation arrest / senescence-like phenotype in tumor cells,[2],caused a senescence-like phenotype in tumor cells in vitro
same,induction of proliferation arrest / senescence-like phenotype in tumor cells,[2]; listed as Cisplatin,generated proliferation-arrested cells
Lipopolysaccharide [LPS],PMN viability,PMN [3]; overnight incubation,markedly reduced it
same,reactivation/proliferation of KPr^p53A cells cultured with PMN plus supplement,KPr^p53A cells,did not affect the ability of PMN to reactivate KPr^p53A cells
NCCc1c[nH]c2ccc(O)cc12 [serotonin],S100A8/A9 release by PMN,PMN [1]; [6],caused rapid release of S100A8/A9 proteins
C/C=C(/C)C(=O)O[C@H]1C(C)=C2[C@H]([C@@H]1OC(=O)CCCCCCC)[C@@](C)(OC(C)=O)C[C@H](OC(=O)CCC)[C@@]1(O)[C@H]2OC(=O)[C@@]1(C)O [thapsigargin],reactivation/proliferation of KPr^p53A cells cultured with PMN plus supplement,KPr^p53A cells,did not induce their ability to reactivate dormant KPr^p53A cells
"NC[C@H](O)c1ccc(O)c(O)c1 [NE, norepinephrine]",reactivation of arrested human tumor cells cultured with human PMN plus supplement,[4],reactivated dormant mouse and human tumor cells
same,PMN viability,PMN [3],did not affect PMN viability
same,S100A8/A9 release by PMN,PMN [1]; [6],caused rapid release of S100A8/A9 proteins
same,proliferation of arrested mouse tumor cells cultured with mouse PMN plus supplement,[5],reactivated dormant mouse and human tumor cells
same,"reactivation/proliferation of KPr^p53A cells, supplement alone",KPr^p53A cells; absence of PMN,did not affect the proliferation of KPr^p53A cells
same,reactivation/proliferation of KPr^p53A cells cultured with PMN plus supplement,KPr^p53A cells,caused proliferation of tumor cells
TNF a,reactivation/proliferation of KPr^p53A cells cultured with PMN plus supplement,KPr^p53A cells,did not induce their ability to reactivate dormant KPr^p53A cells
PE (18:0p/20:4) [Untreated PE],proliferation of KPr^p53A cells cultured with lipids,"KPr^p53A cells; lipids added to dormant cells, no PMN",did not activate proliferation of KPr^p53A cells
C[C@]12CCC(=O)C=C1CC[C@@H]1[C@@H]2[C@@H](O)C[C@@]2(C)[C@H]1CC[C@]2(O)C(=O)CO [cortisol],S100A8/A9 release by PMN,PMN [1]; [6],caused rapid release of S100A8/A9 proteins
"CCCCCCCCCCCCCC(=O)O[C@@H]1[C@@H](C)[C@@]2(O)[C@@H](C=C(CO)C[C@]3(O)C(=O)C(C)=C[C@@H]23)[C@@H]2C(C)(C)[C@]12OC(C)=O [PMA, phorbol 12-myristate 13-acetate]",reactivation/proliferation of KPr^p53A cells cultured with PMN plus supplement,KPr^p53A cells,did not induce their ability to reactivate dormant KPr^p53A cells
B1,reactivation/proliferation of KPr^p53A cells cultured with PMN plus supplement,KPr^p53A cells,did not induce their ability to reactivate dormant KPr^p53A cells
B2,reactivation of arrested human tumor cells cultured with human PMN plus supplement,[4],reactivation of A549^cisA and OVCAR3^cisA cells
